Patent US20180201651A1, “PHARMACEUTICAL COMPOSITION THAT IS ANTICANCER AND SUPPRESSES CANCER METASTASIS, CONTAINING, AS ACTIVE INGREDIENT, FUSION PEPTIDE SIMULTANEOUSLY TARGETING CANCER CELL AND TUMOR ASSOCIATED MACROPHAGE” (Kyungpook National University Industry-Academic Cooperation …, priority 2015, published 2018)
Where no end group is shown, it is not given here.

Assays:
IL-4 receptor [1] = experiment: Immunofluorescent staining of IL4RPep-1 bound to IL-4 receptors and cells; assay type: cell-based
Description: In order to test whether the peptides binds to cells, tumor cells were blocked with 1% BSA solution initially, 10 μM FITC-labeled IL4RPep1 peptides of SEQ ID NO: 1 were then incubated at 4° C. for 1 hour. The cells were washed and fixed with 4% PFA, while their nuclei were stained with DAPI.
To evaluate the expression level of IL-4 receptor in the cells or tumor tissues, immunostaining was performed on frozen tissue sections or fixed mouse tumor cell lines by using anti-IL-4R, anti-IL13Rα1 and anti-IL2R γC antibodies.
After being washed with PBS, the cells were incubated at room temperature for 1 hour with secondary antibodies. Finally, following nuclear staining with DAPI, the cells were examined by a fluorescence microscope (Zeiss, Germany).

IL-4 receptor [2] = target: T1, IL-4 receptor (Mus musculus, UniProt P16382); experiment: In vivo optical imaging and histological analysis of peptide binding in 4T1 tumor cells-transplanted mice; details: for fluorescence in tumor tissues: Flamma 675-labeled peptide, tail vein
T1 construct: from tissue; host or cells: 4T1 tumour tissue in wild-type Balb/c mice (IL4R alpha knockout mice as negative control)
T1 sequence (P16382 26-810): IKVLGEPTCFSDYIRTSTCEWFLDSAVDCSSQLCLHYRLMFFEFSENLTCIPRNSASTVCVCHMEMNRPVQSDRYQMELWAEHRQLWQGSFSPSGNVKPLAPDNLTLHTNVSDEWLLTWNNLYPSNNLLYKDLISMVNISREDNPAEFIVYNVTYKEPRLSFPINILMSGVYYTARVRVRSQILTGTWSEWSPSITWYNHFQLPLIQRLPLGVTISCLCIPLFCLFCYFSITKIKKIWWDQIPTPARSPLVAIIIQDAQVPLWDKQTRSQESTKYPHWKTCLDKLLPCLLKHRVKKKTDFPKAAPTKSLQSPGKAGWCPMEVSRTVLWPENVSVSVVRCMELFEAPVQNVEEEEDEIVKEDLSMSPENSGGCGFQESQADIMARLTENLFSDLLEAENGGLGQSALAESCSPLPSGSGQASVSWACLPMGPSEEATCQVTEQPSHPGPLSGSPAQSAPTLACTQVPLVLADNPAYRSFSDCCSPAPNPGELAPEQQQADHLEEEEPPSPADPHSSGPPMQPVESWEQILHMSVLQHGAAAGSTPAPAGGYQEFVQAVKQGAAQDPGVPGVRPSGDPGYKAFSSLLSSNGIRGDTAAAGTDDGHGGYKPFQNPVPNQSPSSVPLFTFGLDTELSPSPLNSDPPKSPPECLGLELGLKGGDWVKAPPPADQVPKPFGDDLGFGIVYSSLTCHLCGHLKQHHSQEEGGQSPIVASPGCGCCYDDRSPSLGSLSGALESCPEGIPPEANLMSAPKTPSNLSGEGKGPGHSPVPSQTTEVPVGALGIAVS
Text: Female wild-type Balb/c mice were purchased from Orient Bio (Republic of Korea) to prepare IL-4 receptor-deficient mice. Mouse tumor models were produced by subcutaneously injecting 1×10^6 4T1 tumor cells into the flank top skin of the wild-type and IL-4 receptor-deficient mice, respectively. Orthotopic animal models were produced by injecting 1×10^6 4T1 cells into the mammary fat tissue of the mice.
(§1) The Flamma 675-labeled IL4RPep-1 peptide (SEQ ID NO: 1) and control peptide (NSSSVDK) of SEQ ID NO: 7 were administered via the tail vein of 4T1 tumor cells-transplanted wild-type mice and the IL-4 receptor-deficient mice, respectively. In vivo imaging was conducted using the Optix imaging system (ART Inc., Canada) after one hour and two hours circulation. The mice were sacrificed after imaging, and tumors and organs were then excised for ex vivo imaging.
For immunohistochemical analysis, excised tumors were fixed with 4% PFA and dehydrated with 30% sucrose. 8 μm thick slices of the tumor were prepared and their histological structures were evaluated by DAPI staining.
Additionally, in order to analyze the tendency of […] of the peptide and the receptor in the tumor tissues, the tumor samples were immunostained with anti-IL4Rα antibodies and F4/80 antibodies, followed by detection with Alexa-488/594-conjugated secondary IgG antibodies (invitrogen).

IL-10-treated 4T1 cells = experiment: IL4RPep-1 binding affinity assay on IL-10-treated versus wild-type 4T1 cells; design: species or system mouse; details: FIG. 9A
Description: Blocking the tumor cells with 1% BSA at room temperature for 30 minutes, the biotin-labeled IL4RPep-1 peptides of various concentrations (1 to 80 μM) were incubated for 1 hour. After washing with PBS, the cells were incubated with Neutravidin HRP (1: 10000) at room temperature for 30 minutes. HRP activity was measured by using the TMB substrate, and the reaction was stopped using 2M sulfuric acid. Absorbance was measured at 450 nm using TECAN microplate reader. Kd values were calculated using Graph Pad Prism 6 software (GraphPad software Inc., La Jolla, La.).
4T1 cells were cultured using DMEM medium containing 50% of the mouse spleen-derived macrophages which were differentiated into M2 type macrophages. As for the culture medium containing TAM, the debris was removed by centrifugation and strainer prior to use. Cytokine-induced epithelial mesenchymal transition was implemented by culturing the cells with mouse IL-10 and mouse IL-4 for 24 hours or with mouse TFGβ-containing medium for 48 hours. Subsequently, the cells were stained with N-cadherin (a mesenchymal marker), and the expression level of IL-4 receptor was evaluated.

[3] = system: IL-10-treated 4T1 tumor cells; experiment: Cytotoxicity evaluation (CCK8 kit); assay type: cell-based, mouse; details: FIG. 10B
Description: (§2) Absorbance was measured at 450 nm, and cytotoxicity was calculated by the following equation:
(§3) Cell viability=(A sample−A blank/A control−A blank)×100
(§4) A control=Absorbance value of the well which contains only cells and CCK8 solution

[4] = system: M2 type macrophages (tumor-associated macrophages, TAM)
Description: as §2, §3, §4

4T1 tumor = experiment: In vivo anti-cancer and cancer metastasis inhibitory activity, orthotopic 4T1 tumor model; design: species or system mouse
Description: Orthotropic 4T1 tumor model were produced by the implantation of 1×10^6 4T1 cells into the left mammary fat pad of the wild-type Balb/c mouse. Tumor was left to grow until its size reached approximately 100 mm^3, followed by random segregation of mice into separate groups for administration. Mice were separated into a total of six groups with five […] in each group. Peptides ([…] ID NO: 1) and […] fusion polypeptide (SEQ ID NO: 3), respectively) were administered via the tail vein of the mouse at an equimolar concentration (1 mM peptide 200/20 g body weight of mice, administered 3 times a week for 4 weeks). Mice of the other three groups were intraperitoneally administered with 8 mg/kg dosage concentration of paclitaxel once a week, in addition to the administration of the peptides. […] The weight and tumor size of the mice were observed after administration. The tumor size was measured with a digital caliper, and the volume of the tumor was calculated by the following equation: V=(L×W×H)/2 (L: the longest-length, W: Short length, H: height) The mice were sacrificed after the last dose, and metastasis of the tumor into the lungs and liver was evaluated. The excised tumors and organs were fixed in 4% PFA and used for additional immunohistological analysis. Frozen tumor tissues were blocked with a blocking solution of 1 g of BSA, 0.2 g of gelatin and 0.05 g of saponin dissolved in PBS, followed by incubation using primary antibodies for 11⁄2 hours and staining using HRP-labeled secondary antibodies for 45 minutes at room temperature. The stained tissues were exposed using DAB (DAKO) and a contrast dyeing was performed using hematoxylin for 5 minutes at room temperature. Each step moved onto the next one after washing with PBS containing 10% blocking solution. Finally, the tissues were observed by Bright Field Microscopy.

wild-type 4T1 cells = experiment: Cytotoxicity evaluation (CCK8 kit); assay type: cell-based, mouse; details: FIG. 10A
Description: as §2, §3, §4

mouse IL-4 receptor = target: T2, mouse IL-4 receptor (mouse, UniProt P16382 26-810); experiment: in vivo and ex vivo fluorescence imaging, Flamma 675-labelled peptide, 4T1 tumor-bearing Balb/c mice
T2 construct: whole, on cells; The target is endogenous receptor on mouse cells, not a purified protein; also called IL4R alpha
T2 sequence (looked up): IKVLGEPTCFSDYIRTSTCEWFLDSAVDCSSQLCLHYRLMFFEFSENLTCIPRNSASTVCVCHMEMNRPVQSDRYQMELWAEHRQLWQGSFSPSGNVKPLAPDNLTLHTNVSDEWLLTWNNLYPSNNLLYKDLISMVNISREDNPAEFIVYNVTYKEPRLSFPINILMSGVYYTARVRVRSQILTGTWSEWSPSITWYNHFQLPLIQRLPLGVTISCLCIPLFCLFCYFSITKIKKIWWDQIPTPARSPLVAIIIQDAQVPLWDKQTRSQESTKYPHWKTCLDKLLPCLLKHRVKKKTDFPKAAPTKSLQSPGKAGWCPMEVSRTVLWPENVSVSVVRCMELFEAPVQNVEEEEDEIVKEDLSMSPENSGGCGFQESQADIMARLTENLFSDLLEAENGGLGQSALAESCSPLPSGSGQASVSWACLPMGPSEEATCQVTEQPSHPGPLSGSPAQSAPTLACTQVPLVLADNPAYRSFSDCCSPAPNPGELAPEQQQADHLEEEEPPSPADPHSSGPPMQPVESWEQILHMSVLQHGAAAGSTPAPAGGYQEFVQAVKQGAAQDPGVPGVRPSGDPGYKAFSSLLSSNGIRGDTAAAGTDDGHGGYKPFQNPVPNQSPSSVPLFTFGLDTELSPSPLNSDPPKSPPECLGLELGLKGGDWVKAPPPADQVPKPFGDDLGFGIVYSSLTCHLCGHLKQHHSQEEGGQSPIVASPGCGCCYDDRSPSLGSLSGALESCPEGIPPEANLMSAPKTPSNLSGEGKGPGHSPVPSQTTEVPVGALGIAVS
Description: as §1
It was evaluated whether the IL4RPep-1 peptide having the amino acid sequence of SEQ ID NO: 1 specifically binds to IL-4 receptor in 4T1 tumor cells-transplanted Balb/c wild-type mice and Balb/c IL-4 receptor-deficient (knockout) mice, respectively. That is, Flamma 675-labeled IL4RPep-1 peptides and control peptides (NSSSVDK, SEQ ID NO: 7) were administered into the tail vein of the mouse, respectively, followed by real time observation for fluorescence intensity.

[5] = 4T1-transplanted wild-type Balb/c mice, in vivo and ex vivo
[6] = frozen tumor sections, antibody staining, versus control group, FIG. 13

Description for M1-type macrophages: as §2, §3, §4

## CRKRLDRNC [IL4RPep-1]
IL-4 receptor [1]; 4T1, A549, MDA-MB 231, M1 and M2 type Raw 264.7 cells, FITC-labeled peptide 10 μM
  binding to cells versus expression pattern of IL-4 receptors: specifically bind to IL-4 receptors
IL-4 receptor [1]; mouse spleen-derived M1 type and M2 type macrophages, FIG. 2A
  binding pattern to cells versus expression pattern of IL-4 receptors: the same as the expression pattern of IL-4 receptors
IL-4 receptor [2]; 4T1-transplanted IL-4 receptor-deficient (knockout) Balb/c mice
  fluorescence in tumor tissues: no fluorescence was detected
IL-4 receptor [2]; [5]
  fluorescence in tumor tissues: strongly detected
IL-4 receptor [2]; IL-4 receptor-deficient mice, immunostaining, FIG. 4B
  peptide binding in excised tumor tissue fragments: no binding
IL-4 receptor [2]; wild-type mice, immunostaining, FIG. 4A
  peptide staining in excised tumor tissue fragments: in the same pattern as that of IL-4 receptors
IL-10-treated 4T1 cells
  binding affinity in IL-10-treated 4T1 cells compared with wild-type 4T1 cells: significantly excellent

## CRKRLDRNCGGGKLAKLAKKLAKLAK (Fusion peptide) [IL4RPep-1-KLA]
[3]
  cytotoxicity: excellent cytotoxicity
[4]
  cytotoxicity: excellent cytotoxicity
M1-type macrophages
  cytotoxicity: insignificant
4T1 tumor; Balb/c mice, tail vein, 3 times a week for 4 weeks, from administration until end of experiment, FIG. 11
  tumor growth: significantly suppressed
4T1 tumor; [6]
  CD4(+) T cells in tumor tissue: decreased
  CD8 (+) T cells in tumor tissue: increased
  CD80(+) macrophages in tumor tissue: increased
  F4/80(+) tumor-associated macrophages in tumor tissue: reduced
  N-cadherins in tumor tissue: reduced
4T1 tumor; organs excised after final administration, FIGS. 12A and 12B
  metastasis of cancer in liver and lungs: not observed at all
wild-type 4T1 cells
  cytotoxicity: insignificant

## NSSSVDK [control peptide, reference compound]
IL-4 receptor [2]; [5]
  fluorescence in tumor tissues: no fluorescence was detected

## NSSSVDK (also: Flamma 675 label, position not given here, Control peptide) [control peptide (NSSSVDK)]
Mouse IL-4 receptor
  binding result: no binding
